According to publication PMC11659602, “Discovering covalent cyclic peptide inhibitors of peptidyl arginine deiminase 4 (PADI4) using mRNA-display with a genetically encoded electrophilic warhead” (Communications Chemistry, 2024):
Where “and” joins values, the source holds several entries; their conditions need not be identical. Equal values may be shown once. Where a SMILES comes first, the peptide text is derived from it. Bridges are numbered along the chain shown (N, C = ends). [ ]: non-standard residue; d: D form. Orn(fluoroacetimidoyl) = N=C(CF)NCCC[C@H](N)C(=O)O

Columns and labels:
Experiment in all cases: Incubation time-dependent COLDER assay, selectivity
Type in all cases: biochemical
PADI3 = target: T1, PADI3 (Homo sapiens, UniProt Q9ULW8); conditions: for PADI3 activity normalised to 0.1% DMSO: quenched after 60 mins; for selectivity for PADI4 over PADI3: COLDER; for PADI3 activity, normalised (Figure S11c): same values as column 60 of Figure S11b
T1 construct: PADI3 (residue 1-664); made in house; host or cells: E. coli NiCo21(DE3)
T1 sequence (Q9ULW8 1-664): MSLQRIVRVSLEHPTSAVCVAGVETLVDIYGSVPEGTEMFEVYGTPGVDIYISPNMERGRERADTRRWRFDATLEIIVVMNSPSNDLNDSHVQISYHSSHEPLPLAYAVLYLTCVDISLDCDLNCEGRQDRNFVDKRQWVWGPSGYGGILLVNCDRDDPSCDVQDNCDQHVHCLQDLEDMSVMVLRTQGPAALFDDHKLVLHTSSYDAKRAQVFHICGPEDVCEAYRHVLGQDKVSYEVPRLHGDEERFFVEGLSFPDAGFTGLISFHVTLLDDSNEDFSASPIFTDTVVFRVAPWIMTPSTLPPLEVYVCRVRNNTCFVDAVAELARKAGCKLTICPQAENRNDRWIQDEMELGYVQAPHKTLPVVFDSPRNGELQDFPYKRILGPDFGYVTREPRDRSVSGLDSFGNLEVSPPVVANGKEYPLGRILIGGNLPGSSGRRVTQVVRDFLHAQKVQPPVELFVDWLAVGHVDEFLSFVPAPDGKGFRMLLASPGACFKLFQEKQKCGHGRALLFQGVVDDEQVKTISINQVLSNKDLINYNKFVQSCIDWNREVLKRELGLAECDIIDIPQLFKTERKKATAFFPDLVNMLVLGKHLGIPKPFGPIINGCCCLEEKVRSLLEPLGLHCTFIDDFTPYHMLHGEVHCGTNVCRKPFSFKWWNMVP
Procedure: (§1) To determine KI and kinact of covalent peptide inhibitors, COLDER assays were used[52]. Peptide dilutions were prepared using 5-fold dilutions from 500 µM and 300 µM to 0.8 µM and 2.4 µM, respectively, at 1% DMSO in COLDER buffer (50 mM HEPES, 150 mM NaCl and 2 mM DTT, pH 7.5). The 9 peptide dilutions were added to a 96-well plate, alongside a 1% DMSO control. An equal volume of 10 mM BAEE was added to each well and the solution was homogenised by pipette mixing. This was mixed with 50 nM His-PADI4, 0.6 mg/mL BSA and 10 mM CaCl2, in COLDER buffer, to bring the final volume to 300 µL in each well. Alternatively, His-PAD1 (100 nM) /His-PADI2 (100 nM) /His-PADI3 (250 nM) were used. For assays with PADI1 and PADI3, 10 mM N^α-benzoyl-L-arginine methyl […] (BAME) was used as the substrate instead of BAEE[48],[58],[59]. At 15-minute intervals, for 5 timepoints, 50 µL of solution was taken from each well and quenched with 10 µL EDTA (300 mM). 200 µL of COLDER solution containing 20 mM diacetyl monoxime/2,3-butanedione monoxime (Merck), 0.5 mM thiosemicarbazide (Acros Organics), 2.25 M H3PO4, 4.5 M H2SO4 and 1.5 mM NH4Fe(SO4)2.12H2O was added to each well. Samples were incubated for 20 min at 95 °C before measuring absorbance at 540 nm on a CLARIOstar Plus (BMG LABTECH). IC50 values for each time point were determined using non-linear regression with GraphPad Prism. Incubation time–dependent potency IC50(t) against incubation time was fitted to the Krippendorff equation (below) to determine KI and kinact using a Python script[53],[59]. […] IC50t=KI1+S/KM⋅2−2e^−ηIC50⋅kinact⋅t/ηIC50⋅kinact⋅t−1 WhereηIC50=IC50t/KI1+S/KM+IC50t

PADI2 = target: T2, PADI2 (Homo sapiens, UniProt Q9Y2J8); conditions: for PADI2 activity normalised to 0.1% DMSO: quenched after 60 mins
T2 construct: His6; made in house
Procedure: as §1

PADI1 = target: T3, PADI1 (Homo sapiens, UniProt Q9ULC6); conditions: for PADI1 activity normalised to 0.1% DMSO: quenched after 60 mins
T3 construct: human PADI1 (residue 1-663); made in house; host or cells: E. coli NiCo21(DE3)
T3 sequence (Q9ULC6 1-663): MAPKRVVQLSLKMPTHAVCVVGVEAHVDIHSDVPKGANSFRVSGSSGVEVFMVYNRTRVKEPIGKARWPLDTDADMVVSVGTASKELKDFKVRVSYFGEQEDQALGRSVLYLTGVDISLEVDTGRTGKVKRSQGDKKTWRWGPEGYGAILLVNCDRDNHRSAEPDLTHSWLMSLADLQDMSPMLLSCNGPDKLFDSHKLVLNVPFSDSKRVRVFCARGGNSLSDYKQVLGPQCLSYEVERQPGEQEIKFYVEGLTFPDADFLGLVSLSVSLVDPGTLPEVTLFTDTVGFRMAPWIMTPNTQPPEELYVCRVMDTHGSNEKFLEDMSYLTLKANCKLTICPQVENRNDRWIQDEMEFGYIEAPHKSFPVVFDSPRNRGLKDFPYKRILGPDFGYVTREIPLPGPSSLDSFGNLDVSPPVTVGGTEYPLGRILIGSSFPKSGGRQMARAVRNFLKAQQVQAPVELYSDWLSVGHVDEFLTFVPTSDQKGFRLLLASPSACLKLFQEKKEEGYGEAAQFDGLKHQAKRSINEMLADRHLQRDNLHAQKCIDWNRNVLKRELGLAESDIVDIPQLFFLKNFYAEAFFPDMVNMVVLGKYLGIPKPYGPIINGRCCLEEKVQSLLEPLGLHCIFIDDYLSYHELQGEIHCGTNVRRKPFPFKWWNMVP
Procedure: as §1

T2 sequence (Q9Y2J8 whole entry, species assumed): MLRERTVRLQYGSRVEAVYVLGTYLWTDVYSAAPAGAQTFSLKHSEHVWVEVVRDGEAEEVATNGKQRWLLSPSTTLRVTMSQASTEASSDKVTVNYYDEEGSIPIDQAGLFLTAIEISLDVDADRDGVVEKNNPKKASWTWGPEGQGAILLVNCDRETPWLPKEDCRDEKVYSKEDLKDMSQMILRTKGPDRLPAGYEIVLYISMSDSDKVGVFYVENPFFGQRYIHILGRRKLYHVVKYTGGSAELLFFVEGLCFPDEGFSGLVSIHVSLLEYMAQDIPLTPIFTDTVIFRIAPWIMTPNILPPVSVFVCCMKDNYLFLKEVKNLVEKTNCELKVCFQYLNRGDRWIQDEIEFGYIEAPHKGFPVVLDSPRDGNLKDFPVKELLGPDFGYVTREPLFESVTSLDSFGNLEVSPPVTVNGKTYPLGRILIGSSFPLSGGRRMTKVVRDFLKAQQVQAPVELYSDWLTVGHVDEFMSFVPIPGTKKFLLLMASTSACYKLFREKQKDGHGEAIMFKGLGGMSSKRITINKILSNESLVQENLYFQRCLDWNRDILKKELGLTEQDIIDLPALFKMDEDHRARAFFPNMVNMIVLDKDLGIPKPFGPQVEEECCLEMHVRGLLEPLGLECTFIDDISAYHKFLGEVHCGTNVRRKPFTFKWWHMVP

SMILES: CC(C)C[C@@H]1NC(=O)[C@H](CCCCN)NC(=O)[C@H](CO)NC(=O)[C@H](CO)NC(=O)[C@H](Cc2ccc(O)cc2)NC(=O)[C@H](Cc2c[nH]cn2)NC(=O)[C@H](CCCNC(=N)CF)NC(=O)[C@H](CC(=O)O)NC(=O)[C@H](CC(C)C)NC(=O)[C@@H](Cc2ccc(O)cc2)NC(=O)CSC[C@@H](C(=O)NCC(N)=O)NC(=O)[C@H](Cc2ccc(O)cc2)NC1=O [cP4_15, yLD(2)HYSSKLYCG] ({CH2CO}-[dY]LD[Orn(fluoroacetimidoyl)]HYSSKLYCG-NH2; thioether N-12)
- PADI3 activity normalised to 0.1% DMSO (PADI3; 0.08 µM): 106.942 and 103.941
- PADI3 activity normalised to 0.1% DMSO (PADI3; 0.24 µM): 100.503 and 99.2995
- PADI3 activity normalised to 0.1% DMSO (PADI3; 0.4 µM): 100.805 and 104.641
- PADI3 activity normalised to 0.1% DMSO (PADI3; 1.2 µM): 98.1891 and 97.8109
- PADI3 activity normalised to 0.1% DMSO (PADI3; 2 µM): 82.1932 and 92.0315
- PADI3 activity normalised to 0.1% DMSO (PADI3; 6 µM): 75.5533 and 73.7303
- PADI3 activity normalised to 0.1% DMSO (PADI3; 10 µM): 66.499 and 67.8634
- PADI3 activity normalised to 0.1% DMSO (PADI3; 30 µM): 30.8853 and 30.3853
- PADI3 activity normalised to 0.1% DMSO (PADI3; 50 µM): 18.8129 and 17.5131
- IC50 (PADI3; 60-minute time point, no preincubation): ~40 µM
- selectivity for PADI4 over PADI3 (PADI3): Approximately 45 fold
- PADI2 activity normalised to 0.1% DMSO (PADI2; 0.08 µM): 102.409 and 98.7439
- PADI2 activity normalised to 0.1% DMSO (PADI2; 0.24 µM): 101.533 and 89.4278
- PADI2 activity normalised to 0.1% DMSO (PADI2; 0.4 µM): 100.438 and 90.9979
- PADI2 activity normalised to 0.1% DMSO (PADI2; 1.2 µM): 102.409 and 98.4299
- PADI2 activity normalised to 0.1% DMSO (PADI2; 2 µM): 106.46 and 98.5345
- PADI2 activity normalised to 0.1% DMSO (PADI2; 6 µM): 102.299 and 92.9867
- PADI2 activity normalised to 0.1% DMSO (PADI2; 10 µM): 102.956 and 100.105
- PADI2 activity normalised to 0.1% DMSO (PADI2; 30 µM): 100.219 and 95.1849
- PADI2 activity normalised to 0.1% DMSO (PADI2; 50 µM): 83.0292 and 85.4501
- PADI1 activity normalised to 0.1% DMSO (PADI1; 0.08 µM): 100.799 and 102.269
- PADI1 activity normalised to 0.1% DMSO (PADI1; 0.24 µM): 99.0011 and 78.928
- PADI1 activity normalised to 0.1% DMSO (PADI1; 0.4 µM): 101.598 and 103.89
- PADI1 activity normalised to 0.1% DMSO (PADI1; 1.2 µM): 101.532 and 99.3516
- PADI1 activity normalised to 0.1% DMSO (PADI1; 2 µM): 105.527 and 101.88
- PADI1 activity normalised to 0.1% DMSO (PADI1; 6 µM): 100.999 and 97.3417
- PADI1 activity normalised to 0.1% DMSO (PADI1; 10 µM): 97.1365 and 102.594
- PADI1 activity normalised to 0.1% DMSO (PADI1; 30 µM): 94.4062 and 95.3966
- PADI1 activity normalised to 0.1% DMSO (PADI1; 50 µM): 83.818 and 84.4392

SMILES: N=C(N)NCCC[C@@H]1NC(=O)[C@H](CCCNC(=N)CF)NC(=O)[C@H](CC(=O)O)NC(=O)[C@H](Cc2ccc(O)cc2)NC(=O)[C@H](CCCCN)NC(=O)[C@H](CO)NC(=O)[C@@H](Cc2ccc(O)cc2)NC(=O)CSC[C@@H](C(=O)NCC(N)=O)NC(=O)[C@H](CC(=O)O)NC(=O)[C@H](CCCNC(=N)N)NC(=O)[C@@H]2CCCN2C(=O)[C@H](CO)NC1=O [cP4_4, ySKYD(2)RSPRDCG] ({CH2CO}-[dY]SKYD[Orn(fluoroacetimidoyl)]RSPRDCG-NH2; thioether N-12)
- selectivity for PADI4 over PADI3 (PADI3): 8 fold
- PADI3 activity, normalised (Figure S11c) (PADI3; cP4_4 0.08 µM): 98.438 and 99.5208 and 99.723
- PADI3 activity, normalised (Figure S11c) (PADI3; cP4_4 0.24 µM): 84.0122 and 99.425 and 100.739
- PADI3 activity, normalised (Figure S11c) (PADI3; cP4_4 0.4 µM): 91.6386 and 95.0168 and 95.5679
- PADI3 activity, normalised (Figure S11c) (PADI3; cP4_4 1.2 µM): 73.8132 and 78.438 and 79.5014
- PADI3 activity, normalised (Figure S11c) (PADI3; cP4_4 2 µM): 66.9219 and 70.5798
- PADI3 activity, normalised (Figure S11c) (PADI3; cP4_4 6 µM): 34.487 and 31.5764 and 37.6731
- PADI3 activity, normalised (Figure S11c) (PADI3; cP4_4 10 µM): 25.1148 and 25.0599 and 28.7165
- PADI3 activity, normalised (Figure S11c) (PADI3; cP4_4 30 µM): 13.6294 and 7.139 and 10.988
- PADI3 activity, normalised (Figure S11c) (PADI3; cP4_4 50 µM): 9.311 and 5.7978 and 6.279
- PADI2 activity, normalised (Figure S11c) (PADI2; cP4_4 0.08 µM): 99.789 and 100
- PADI2 activity, normalised (Figure S11c) (PADI2; cP4_4 0.24 µM): 95.7806 and 93.2203
- PADI2 activity, normalised (Figure S11c) (PADI2; cP4_4 0.4 µM): 102.532 and 106.78
- PADI2 activity, normalised (Figure S11c) (PADI2; cP4_4 1.2 µM): 102.954 and 112.106
- PADI2 activity, normalised (Figure S11c) (PADI2; cP4_4 2 µM): 97.2574 and 108.91
- PADI2 activity, normalised (Figure S11c) (PADI2; cP4_4 6 µM): 96.6245 and 106.586
- PADI2 activity, normalised (Figure S11c) (PADI2; cP4_4 10 µM): 98.7342 and 104.552
- PADI2 activity, normalised (Figure S11c) (PADI2; cP4_4 30 µM): 95.8861 and 92.155
- PADI2 activity, normalised (Figure S11c) (PADI2; cP4_4 50 µM): 84.8101 and 93.6077
- PADI1 activity, normalised (Figure S11c) (PADI1; cP4_4 0.08 µM): 100 and 102.598
- PADI1 activity, normalised (Figure S11c) (PADI1; cP4_4 0.24 µM): 93.9237 and 90.941
- PADI1 activity, normalised (Figure S11c) (PADI1; cP4_4 0.4 µM): 98.9277 and 105.899
- PADI1 activity, normalised (Figure S11c) (PADI1; cP4_4 1.2 µM): 98.9873 and 104.073
- PADI1 activity, normalised (Figure S11c) (PADI1; cP4_4 2 µM): 100.477 and 105.618
- PADI1 activity, normalised (Figure S11c) (PADI1; cP4_4 6 µM): 94.7578 and 98.4551
- PADI1 activity, normalised (Figure S11c) (PADI1; cP4_4 10 µM): 89.6942 and 96.559
- PADI1 activity, normalised (Figure S11c) (PADI1; cP4_4 30 µM): 69.6188 and 76.5449
- PADI1 activity, normalised (Figure S11c) (PADI1; cP4_4 50 µM): 54.4281 and 69.382
